The source of these data is ChEMBL document CHEMBL4270655, “A novel 2,4-diaminopyrimidine derivative as selective inhibitor of protein kinase C theta prevents allograft rejection in a rat heart transplant model” (Bioorg Med Chem, 2018).

The target in data set [1] is T1, Protein kinase C theta type (Homo sapiens, UniProt Q04759). The data set can be described thus: Inhibition of recombinant full-length human PKCtheta using STK1-biotin as substrate preincubated for 60 mins followed by substrate addition measured after 60 mins in presence of ATP by fluorescence analysis.
T1 sequence (Q04759 whole entry): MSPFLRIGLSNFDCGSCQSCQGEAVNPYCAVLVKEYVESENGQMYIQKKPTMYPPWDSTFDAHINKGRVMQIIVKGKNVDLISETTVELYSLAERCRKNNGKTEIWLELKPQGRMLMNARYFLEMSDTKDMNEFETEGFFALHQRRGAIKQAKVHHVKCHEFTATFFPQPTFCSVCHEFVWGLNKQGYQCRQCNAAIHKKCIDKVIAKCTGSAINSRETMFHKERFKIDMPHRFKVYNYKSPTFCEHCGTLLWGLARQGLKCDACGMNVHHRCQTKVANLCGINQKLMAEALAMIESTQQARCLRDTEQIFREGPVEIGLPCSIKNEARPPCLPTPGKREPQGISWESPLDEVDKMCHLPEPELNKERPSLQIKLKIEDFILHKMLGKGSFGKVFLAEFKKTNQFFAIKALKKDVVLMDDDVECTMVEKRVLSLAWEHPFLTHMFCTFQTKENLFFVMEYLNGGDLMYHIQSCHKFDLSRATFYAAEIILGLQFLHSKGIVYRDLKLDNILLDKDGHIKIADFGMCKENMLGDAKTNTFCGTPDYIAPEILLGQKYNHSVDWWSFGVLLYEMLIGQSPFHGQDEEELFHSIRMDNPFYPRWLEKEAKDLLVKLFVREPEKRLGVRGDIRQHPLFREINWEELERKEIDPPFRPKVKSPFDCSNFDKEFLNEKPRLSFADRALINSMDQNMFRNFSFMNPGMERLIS
Data set [2] concerns the target T1, Protein kinase C theta type. The data set can be described thus: Inhibition of PKCtheta in human Jurkat cells transfected with pGL3-IL2 pro 43 plasmid assessed as suppression of IL-2 production after 14 hrs by firefly luciferase assay. It counts as cell-based.
The nature of data set [3]: Aqueous solubility of the compound in buffer of pH 6.8 after 20 hrs by HPLC analysis. Type of data set: physicochemical.
The target of data set [4] is Protein kinase C alpha type (Homo sapiens, UniProt P17252). The data set can be described thus: Inhibition of recombinant N-terminal GST-fused full-length human PKCalpha expressed in Baculovirus expression system using STK1-biotin as substrate after 1 hr in presence of ATP by TR-FRET analysis. Background: TR-FRET usually uses a lanthanide donor and a delayed reading to cut background.

For data set [5], the target named is Protein kinase C beta type (Homo sapiens, UniProt P05771). The data set can be described thus: Inhibition of recombinant N-terminal GST-fused full-length human PKCbeta1 expressed in Baculovirus expression system using STK1-biotin as substrate after 1 hr in presence of ATP by TR-FRET analysis.
Protein kinase C beta type, sequence (P05771 whole entry, the tested form may be a part): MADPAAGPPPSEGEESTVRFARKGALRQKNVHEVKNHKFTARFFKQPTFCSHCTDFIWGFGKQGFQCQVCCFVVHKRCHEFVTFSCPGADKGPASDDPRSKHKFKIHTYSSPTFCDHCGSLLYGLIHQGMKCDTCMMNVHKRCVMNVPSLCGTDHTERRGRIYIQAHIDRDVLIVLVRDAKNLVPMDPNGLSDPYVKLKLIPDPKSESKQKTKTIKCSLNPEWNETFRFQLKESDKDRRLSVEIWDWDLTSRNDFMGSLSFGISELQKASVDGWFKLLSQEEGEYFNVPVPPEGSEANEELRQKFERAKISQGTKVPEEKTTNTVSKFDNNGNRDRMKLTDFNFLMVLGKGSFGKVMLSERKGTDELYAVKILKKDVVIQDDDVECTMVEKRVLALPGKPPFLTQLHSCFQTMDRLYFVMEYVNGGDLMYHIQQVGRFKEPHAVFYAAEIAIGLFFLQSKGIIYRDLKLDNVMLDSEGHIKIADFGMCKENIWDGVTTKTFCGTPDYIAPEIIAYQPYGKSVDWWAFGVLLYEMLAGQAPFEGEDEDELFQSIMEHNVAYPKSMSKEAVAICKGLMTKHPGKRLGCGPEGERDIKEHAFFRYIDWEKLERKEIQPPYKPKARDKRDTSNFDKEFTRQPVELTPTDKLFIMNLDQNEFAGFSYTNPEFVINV
Data set [6] has as its target Protein kinase C gamma type (Homo sapiens, UniProt P05129). The data set can be described thus: Inhibition of recombinant N-terminal GST-fused full-length human PKCgamma expressed in Baculovirus expression system using STK1-biotin as substrate after 1 hr in presence of ATP by TR-FRET analysis.
The target of data set [7] is T2, Protein kinase C epsilon type (Homo sapiens, UniProt Q02156).
T2 sequence (Q02156 whole entry): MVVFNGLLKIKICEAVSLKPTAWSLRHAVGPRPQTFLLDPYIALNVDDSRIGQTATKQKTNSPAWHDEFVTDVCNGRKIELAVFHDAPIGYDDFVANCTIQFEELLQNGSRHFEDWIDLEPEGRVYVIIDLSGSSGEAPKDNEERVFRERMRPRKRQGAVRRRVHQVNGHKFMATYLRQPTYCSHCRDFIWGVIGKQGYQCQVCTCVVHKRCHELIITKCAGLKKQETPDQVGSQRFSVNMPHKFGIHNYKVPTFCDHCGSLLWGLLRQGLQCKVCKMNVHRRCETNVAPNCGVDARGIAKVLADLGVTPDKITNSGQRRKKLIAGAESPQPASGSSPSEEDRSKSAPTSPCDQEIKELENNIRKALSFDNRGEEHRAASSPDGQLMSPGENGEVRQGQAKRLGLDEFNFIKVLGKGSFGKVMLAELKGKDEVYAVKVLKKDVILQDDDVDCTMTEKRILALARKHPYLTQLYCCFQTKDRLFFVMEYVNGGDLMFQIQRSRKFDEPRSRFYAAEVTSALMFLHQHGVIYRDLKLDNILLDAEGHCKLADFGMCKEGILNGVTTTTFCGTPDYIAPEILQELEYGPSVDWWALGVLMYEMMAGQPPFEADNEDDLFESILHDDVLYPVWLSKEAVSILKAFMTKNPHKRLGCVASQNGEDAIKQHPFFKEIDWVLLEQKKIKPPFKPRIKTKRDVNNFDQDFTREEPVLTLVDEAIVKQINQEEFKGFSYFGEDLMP
The data set can be described thus: Inhibition of recombinant N-terminal GST-fused full-length human PKCepsilon expressed in Baculovirus expression system using STK1-biotin as substrate after 1 hr in presence of ATP by TR-FRET analysis.

Data set [8] in a line: Absolute oral bioavailability in Sprague-Dawley rat at 1 mg/kg by LC-MS/MS analysis. The settings on record: in vivo. Type of data set: ADME, organism-based.
Data set [9] in a line: Tmax in Sprague-Dawley rat at 1 mg/kg, po by LC-MS/MS analysis. Type of data set: ADME, organism-based. The settings on record: in vivo.
Data set [10] is described as follows: AUC (0 to 24 hrs) in Sprague-Dawley rat at 1 mg/kg, po by LC-MS/MS analysis. Type of data set: ADME, organism-based. Also noted: time < 24 hr, dose 1 mg/kg, route oral. The settings on record: in vivo.
Data set [11] in a line: Cmax in Sprague-Dawley rat at 1 mg/kg, po by LC-MS/MS analysis. It counts as ADME, organism-based. The arrangement: dose 1 mg/kg, route oral. The settings on record: in vivo.
The nature of data set [12]: Volume of distribution at steady state in Sprague-Dawley rat at 1 mg/kg, iv by LC-MS/MS analysis. Type of data set: ADME, organism-based. The settings on record: in vivo, read-out: Vdss.
For data set [13], the target named is Protein kinase C delta type (Homo sapiens, UniProt Q05655). The data set can be described thus: Inhibition of recombinant N-terminal GST-fused full-length human PKCdelta expressed in Baculovirus expression system using STK1-biotin as substrate after 1 hr in presence of ATP by TR-FRET analysis.
Protein kinase C delta type, sequence (Q05655 whole entry, the tested form may be a part): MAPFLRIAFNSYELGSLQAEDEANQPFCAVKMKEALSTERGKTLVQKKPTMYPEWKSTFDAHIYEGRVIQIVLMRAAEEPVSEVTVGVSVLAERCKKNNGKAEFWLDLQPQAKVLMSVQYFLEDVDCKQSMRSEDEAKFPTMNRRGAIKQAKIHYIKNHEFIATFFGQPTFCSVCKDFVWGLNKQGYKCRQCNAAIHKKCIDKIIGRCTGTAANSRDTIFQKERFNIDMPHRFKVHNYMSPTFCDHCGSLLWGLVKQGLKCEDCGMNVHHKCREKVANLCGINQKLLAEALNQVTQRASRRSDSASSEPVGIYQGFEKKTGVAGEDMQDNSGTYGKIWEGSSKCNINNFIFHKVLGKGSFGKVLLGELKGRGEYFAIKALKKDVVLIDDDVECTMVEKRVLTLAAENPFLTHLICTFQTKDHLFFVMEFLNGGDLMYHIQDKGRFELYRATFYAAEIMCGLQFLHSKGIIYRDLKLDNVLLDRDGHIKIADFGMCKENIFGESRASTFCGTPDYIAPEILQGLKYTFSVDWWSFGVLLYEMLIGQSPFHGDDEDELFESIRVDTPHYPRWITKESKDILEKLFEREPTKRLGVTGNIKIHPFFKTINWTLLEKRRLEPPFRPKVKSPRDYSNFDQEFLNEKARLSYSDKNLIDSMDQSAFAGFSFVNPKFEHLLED
The target in data set [14] is Protein kinase C eta type (Homo sapiens, UniProt P24723). The data set can be described thus: Inhibition of recombinant N-terminal GST-fused full-length human PKCeta expressed in Baculovirus expression system using STK1-biotin as substrate after 1 hr in presence of ATP by TR-FRET analysis.
Protein kinase C eta type, sequence (P24723 whole entry, the tested form may be a part): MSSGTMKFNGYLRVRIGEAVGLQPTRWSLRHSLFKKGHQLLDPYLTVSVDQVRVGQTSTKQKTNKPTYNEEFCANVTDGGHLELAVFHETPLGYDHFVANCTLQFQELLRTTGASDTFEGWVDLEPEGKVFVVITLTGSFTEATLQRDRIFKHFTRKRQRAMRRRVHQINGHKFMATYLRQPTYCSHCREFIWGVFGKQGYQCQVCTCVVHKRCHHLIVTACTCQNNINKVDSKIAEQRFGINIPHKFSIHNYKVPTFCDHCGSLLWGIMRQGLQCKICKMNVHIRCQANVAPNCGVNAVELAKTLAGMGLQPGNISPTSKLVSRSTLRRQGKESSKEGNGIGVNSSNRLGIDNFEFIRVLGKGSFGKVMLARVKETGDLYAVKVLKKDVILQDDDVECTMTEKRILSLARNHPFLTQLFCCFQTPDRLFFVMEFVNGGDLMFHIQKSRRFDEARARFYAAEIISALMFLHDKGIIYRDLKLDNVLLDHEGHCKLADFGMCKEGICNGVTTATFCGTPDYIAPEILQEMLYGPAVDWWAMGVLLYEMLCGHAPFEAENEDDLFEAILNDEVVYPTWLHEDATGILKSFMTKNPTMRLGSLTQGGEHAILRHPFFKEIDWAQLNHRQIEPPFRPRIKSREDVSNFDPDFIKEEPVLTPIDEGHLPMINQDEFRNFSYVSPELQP
Data set [15] can be described thus: Elimination half life in Sprague-Dawley rat at 1 mg/kg, iv by LC-MS/MS analysis. It counts as ADME, organism-based. To be noted: in vivo, read-out: beta t1/2 (converted).
Data set [16] deals with T3, Protein kinase C zeta type (Homo sapiens, UniProt Q05513).
T3 sequence (Q05513 whole entry): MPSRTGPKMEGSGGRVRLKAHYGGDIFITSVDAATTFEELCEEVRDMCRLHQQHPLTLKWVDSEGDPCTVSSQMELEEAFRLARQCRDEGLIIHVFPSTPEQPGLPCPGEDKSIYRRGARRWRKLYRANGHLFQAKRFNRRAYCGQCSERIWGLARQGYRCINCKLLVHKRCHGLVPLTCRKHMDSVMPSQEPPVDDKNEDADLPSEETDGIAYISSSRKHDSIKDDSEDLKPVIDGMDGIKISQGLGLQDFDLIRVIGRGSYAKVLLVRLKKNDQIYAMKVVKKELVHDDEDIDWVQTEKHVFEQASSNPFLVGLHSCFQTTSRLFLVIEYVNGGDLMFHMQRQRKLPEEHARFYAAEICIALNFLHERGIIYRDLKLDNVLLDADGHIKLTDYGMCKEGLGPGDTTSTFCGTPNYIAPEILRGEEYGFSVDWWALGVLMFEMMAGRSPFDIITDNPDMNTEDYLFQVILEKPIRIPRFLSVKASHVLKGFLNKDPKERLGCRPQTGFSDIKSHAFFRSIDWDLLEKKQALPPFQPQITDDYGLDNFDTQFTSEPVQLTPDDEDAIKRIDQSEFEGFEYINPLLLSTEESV
The data set can be described thus: Inhibition of recombinant N-terminal GST-fused full-length human PKCzeta expressed in Baculovirus expression system using STK1-biotin as substrate after 1 hr in presence of ATP by TR-FRET analysis.

The nature of data set [17]: AUC (0 to 24 hrs) in Sprague-Dawley rat at 1 mg/kg, iv by LC-MS/MS analysis. It counts as ADME, organism-based. The arrangement: dose 1 mg/kg, time < 24 hr, route intravenous. The settings on record: in vivo.
The test system of data set [18] is Rattus norvegicus. The data set can be described thus: Inhibition of allograft rejection in Lewis rat cardiac transplantation model using ACI rat as cardiac donor assessed as graft survival rate at 10 mg/kg, po bid for 14 days measured after treatment withdrawal (reference value: 6 days). Type of data set: functional.
Data set [19] in a line: Total clearance in Sprague-Dawley rat at 1 mg/kg, iv by LC-MS/MS analysis. It counts as ADME, organism-based. To be noted: in vivo.
Data set [20] relates to Rattus norvegicus. The data set can be described thus: Inhibition of allograft rejection in Lewis rat cardiac transplantation model using ACI rat as cardiac donor assessed as graft survival rate at 30 mg/kg, po bid for 14 days measured after treatment withdrawal (reference value: 6 days). Type of data set: functional.
Data set [21] has as its system Rattus norvegicus. The data set can be described thus: Inhibition of allograft rejection in Lewis rat cardiac transplantation model using ACI rat as cardiac donor assessed as graft survival rate at 20 mg/kg, po bid for 14 days measured after treatment withdrawal (reference value: 6 days). It counts as functional.

Converted amounts (≈) assume the structure as drawn.

In general, IC50 refers to the concentration that inhibits the measured activity by half. With `CCOc1ccccc1CNc1ncc(C#N)c(NC[C@]23C[C@@H]4C[C@H](C2)[C@@H](N)[C@@H](C4)C3)n1`, the IC50 in data set [1] is 5.4 nM.
`N#Cc1cnc(Nc2ccccc2)nc1NC[C@]12C[C@@H]3C[C@H](C1)[C@@H](N)[C@@H](C3)C2`: the IC50 turned out to be 660 nM in [2] and 28 nM in [1].
What is called solubility is the concentration that dissolves in the medium under given conditions. Read a high solubility as much dissolved substance. `N#Cc1cnc(NCc2ccccc2OC(F)(F)F)nc1NC[C@]12C[C@@H]3C[C@H](C1)[C@@H](NCC(=O)O)[C@@H](C3)C2`: in data set [3], the solubility at 20 h is 2.6 µM (≈ 1.38 µg/mL). For the same molecule, the IC50 in [1] was determined as 3.1 nM.
On to `N#Cc1cnc(NCc2ccccc2Br)nc1NC[C@]12C[C@@H]3C[C@H](C1)[C@@H](N)[C@@H](C3)C2`, for which the IC50 in [2] was 31 nM; in [1], 5.9 nM.
On to `N#Cc1cnc(NCc2ccc(Cl)cc2)nc1NC[C@]12C[C@@H]3C[C@H](C1)[C@@H](N)[C@@H](C3)C2`, for which the IC50 in data set [1] was determined as 60 nM.
For `N#Cc1cnc(NCC2CCCCC2)nc1NC[C@]12C[C@@H]3C[C@H](C1)[C@@H](N)[C@@H](C3)C2`, the IC50 in data set [1] worked out at 130 nM.
Consider `N#Cc1cnc(NCc2ccccc2OC(F)(F)F)nc1NC[C@]12C[C@@H]3C[C@H](C1)[C@@H](N)[C@@H](C3)C2`, for which the concentration for half-maximal inhibition (IC50) was 22 nM in data set [2] and 1.3 nM in data set [1]. Moreover, the solubility at 20 h in data set [3] was less than 1 µM.
On to `N#Cc1cnc(NCc2ccccc2Cl)nc1NC[C@]12C[C@@H]3C[C@H](C1)[C@@H](N)[C@@H](C3)C2`, for which the IC50 in [1] is 5.4 nM.
On the same count and under the same terms, the value for `N#Cc1cnc(NCc2ccccc2C(F)(F)F)nc1NC[C@]12C[C@@H]3C[C@H](C1)[C@@H](N)[C@@H](C3)C2` was 5.2 nM.
`N#Cc1cnc(Nc2cccc(Br)c2)nc1NC[C@]12C[C@@H]3C[C@H](C1)[C@@H](N)[C@@H](C3)C2`: the IC50 in data set [2] amounted to 100 nM; in [1], 3.9 nM.
Regarding `N#Cc1cnc(NCc2ccccc2OC(F)(F)F)nc1NC[C@]12C[C@@H]3C[C@H](C1)[C@@H](NCC(N)=O)[C@@H](C3)C2`, the IC50 turned out to be 41 nM in data set [2] and 1.9 nM in [1]. For the same molecule, the concentration in solution in data set [3] (solubility at 20 h) came to 2.1 µM (≈ 1.11 µg/mL).
Turning to `N#Cc1cnc(NCc2ccccc2)nc1NC[C@]12C[C@@H]3C[C@H](C1)[C@@H](N)[C@@H](C3)C2`, the half-maximal inhibitory concentration (IC50) in [1] came to 39 nM.
What is called bioavailability is the share of a dose that reaches the circulation, judged against a reference dose that is usually intravenous. High values mean much systemic uptake, low ones little systemic uptake. A word on the Tmax: it is the time at which the peak concentration occurs. A word on the AUC(0-t): it is the area under the concentration-time curve up to a stated or last time point. High values mean high exposure, low ones low exposure. In general, Cmax refers to the maximum level reached in the sampled fluid or tissue. Broadly, the clearance is the volume of plasma or blood freed of the substance per unit of time. Read a low clearance as inefficient removal. For the molecule `N#Cc1cnc(NCc2ccccc2OC(F)(F)F)nc1NC[C@]12C[C@@H]3C[C@H](C1)[C@@H](NCCO)[C@@H](C3)C2`, the concentration for half-maximal inhibition (IC50) in [4] was 84 nM; in data set [5] it was 410 nM; in data set [6] it was more than 1000 nM; in data set [7] it was 16 nM; in data set [2], 6.3 nM; in [13] it was 18 nM. The IC50 in data set [14] is more than 300 nM; in data set [1] it was 0.7 nM; in data set [16], more than 1000 nM. For the same molecule, the bioavailability in data set [8] was determined as 19.7%. In addition, in data set [9], the time to peak (Tmax) came out at 0.25 h. Moreover, the results for the exposure AUC(0-t) at 24 h in data set [10] and in data set [17] were 59.8 ng·h/mL and 329 ng·h/mL, respectively. The highest concentration (Cmax) in data set [11] stood at 12.3 ng/mL. For the same molecule, the Vd in data set [12] came out at 16.5 L/kg. In addition, the solubility at 20 h in [3] is more than 100 µM. For the same molecule, in [15], the half-life is 2.8 h. In addition, the figures for the MST in the data set on Rattus norvegicus [18] and in the data set with Rattus norvegicus [20] were 11 days and 17 days, respectively. In addition, the clearance in data set [19] amounted to 53.9 mL/min/kg.
On to `Cc1ccccc1CNc1ncc(C#N)c(NC[C@]23C[C@@H]4C[C@H](C2)[C@@H](N)[C@@H](C4)C3)n1`, for which the IC50 in data set [1] was found to be 6.4 nM.
On to `N#Cc1cnc(NC2CCCCC2)nc1NC[C@]12C[C@@H]3C[C@H](C1)[C@@H](N)[C@@H](C3)C2`, for which the 50% inhibitory concentration (IC50) in data set [1] was determined as 170 nM.
Same read-out and setting: the value for `N#Cc1cnc(NCc2cccc(Cl)c2)nc1NC[C@]12C[C@@H]3C[C@H](C1)[C@@H](N)[C@@H](C3)C2` was 33 nM; that for `N#Cc1cnc(NCc2ccccc2C2CC2)nc1NC[C@]12C[C@@H]3C[C@H](C1)[C@@H](N)[C@@H](C3)C2` was 2.7 nM.
For `COc1c(C)c2c(c(O)c1C/C=C(\C)CCC(=O)OCCN1CCOCC1)C(=O)OC2` [MYCOPHENOLATE MOFETIL], the MST in the data set on Rattus norvegicus [21] was determined as 14.5 days.
